The subject of the experiment is VEEV Trinidad donkey, virus titer reduction. The experiment in a line: secondary screen, VEEV Trinidad donkey strain, virus titer reduction, 10 µM (AID 602411). The note with it: at 10 µM; active compounds read low.

Experimental findings from PubChem BioAssay AID602411 (Southern Research Specialized Biocontainment Screening …, 2012) are described below.

For `CCN1CCN(Cc2nc3ccc([N+](=O)[O-])cc3c(=O)n2-c2ccccc2F)CC1`, the log virus titer change is < -5.5.
With `CN1CCN(Cc2nc3ccc([N+](=O)[O-])cc3c(=O)n2-c2ccccc2F)CC1` the figure was < -5.2.
